Experiments:
[1] = Solubility: no aggregation and precipitation in aqueous buffer (size exclusion chromatography and/or UV-spectroscopy); type: physicochemical; details: aqueous buffer of physiological pH; for concentration at which no aggregation and precipitation is seen: spectroscopy-compatible conditions
Procedure: The concentration of protein used in an assay of the present invention depends on the binding affinity between a specific mRNA (fragment) and HuR, e.g. the protein concentration used in an assay of the present invention may be lower in case there is a high binding affinity between the two species or vice versa. Solvent include aqueous solvent, e.g. buffer solution, e.g. aqueous physiological buffer solution.
Expression of the cloned HuR-Intein-CBD fusion protein is induced by addition of 1 mM IPTG to a bacterial culture grown to late-logarithmic phase in LB broth medium and allowed to proceed for 6 hours at 28°. The bacterial cells are lysed by successive freezing/thawing cycles in a buffer of 20 mM Tris/Cl pH 8.0, 800 mM NaCl, 1 mM EDTA and 0.2% Pluronic F-127 (Molecular Probes). After DNA digestion, the bacterial lysates are cleared by ultracentrifugation and the fusion protein is captured onto chitin agarose beads (New England Biolabs) via the CBD. After extensive washing of the beads with lysis buffer, the recombinant protein is recovered by thiol-induced on-column self-splicing of the intein tag by addition of Na-2-MESNA to a final concentration of 50 mM and incubation for 12 hours at 4°. Any co-eluted intein tag and un-cleaved fusion protein are removed from the eluate in a second, subtractive affinity step. […]
The quality of the purified protein is controlled by denaturing SDS-PAGE, UV-spectroscopy, analytical Size Exclusion Chromatography, RP-HPLC analysis, LC/ESI-MS analysis and CD-spectroscopy, following standard protocols as described in example 2. […] Results from UV-spectroscopy, showing no absorbance at >330 nm, and analytical size exclusion chromatography, where HuR elutes as a single peak with a maximum at 24.2 kD, provide evidence that no higher aggregation states of the protein are present at the given buffer concentrations.
The folding of the protein after the purification procedure as well as following fluorescent labeling is monitored by CD-Spectroscopy.

[2] = molecular target: T1, sfl-HuR (soluble form of full length HuR) (Homo sapiens, UniProt Q15717); test: 2D-FIDA-r anisotropy assay: titration of fluorescently labeled ARE RNA fragments against sfl-HuR; type: binding; details: 2D-FIDA-r assay, RNA fragment 5'-terminally labeled with 5'-carboxy-TMR; for Kd: read-out: Kd sfl-HuR in nM +/- St. dev.
T1 construct: made in house; host or cells: E. coli ER2566
Procedure: (§1) In a preferred embodiment an assay of the present invention is performed by use of 2 dimensional-FIDA anisotropy analysis, wherein the fluorescence anisotropy of the complex between mRNA and HuR is determined at single molecule sensitivity by extension of the microscopic confocal detection setup to two polarisation channels.
(§2) Titration of fluorescently labeled RNA fragments corresponding to the AREs of, for example, IL-2, IL-4, IL-8, Cox-2, IL-1β or TNF-α (5′-terminally labeled with 5′-carboxy-TMR and 33, 58, 26, 35, 33 and 34 nts in length, respectively), against increasing concentrations of a soluble form of recombinant full-length HuR or HuR12 is performed.
(§3) In vitro, individual AU rich elements are bound to HuR with different affinity, although they are derived from mRNA targets which are known to be associated with HuR-mediated regulation. This fragment selectivity is retained when the third RRM as well as the hinge region are missing as is the case for HuR12. […] However, the full length protein binds to all fragments with a higher affinity. The Kd is lower by an almost constant factor of 50. In contrast, the low affinity fragments (Kd for HuR12>1 μM) are no longer recognized by the full length protein at all (see TABLE 1).

HuR12 = molecular target: T2, HuR12 (Homo sapiens, UniProt Q15717); test: 2D-FIDA-r anisotropy assay: titration of fluorescently labeled ARE RNA fragments against HuR12; type: binding; details: 2D-FIDA-r assay, RNA fragment 5'-terminally labeled with 5'-carboxy-TMR; for Kd: read-out: Kd HuR12 in nM +/- St. dev.
T2 construct: Mxe-intein-CBD tag (IMPACT-TWIN, pTWIN1) (C, cleaved yes); 2-MESNA thioester on the C-terminal carboxyl group (>95% of the material); made in house; host or cells: E. coli ER2566 (pTWIN1/HuR12)
Procedure: as §1, §2, §3

full length HuR = molecular target: T3, full length HuR (Homo sapiens, UniProt Q15717); test: Deduction of the HuR binding site: affinities of RNA fragments to full length HuR
T3 construct: made in house; host or cells: E. coli ER2566
Procedure: Individual RNA fragments are synthesized and the affinities (given as Kd values) to full length HuR are determined (see TABLE 2). […] An influence of the fluorescent dye is excluded by competition experiments with unlabeled RNA fragments. […] Fragments 5, 6, 7a-7d and 8a-8c serve to tests tolerance for non-Uracil (exemplified by A=adenine) and C, respectively, at the depicted (bold and underlined) positions. […] This interaction appears to follow an all-or-nothing mechanism: While sequences with single mismatches are not recognized, sequences fulfilling this motif are bound with high affinity and an invariable Kd, Kdfund, of 0.99 nM.

T3 sequence (Q15717 whole entry, the tested form may be a part): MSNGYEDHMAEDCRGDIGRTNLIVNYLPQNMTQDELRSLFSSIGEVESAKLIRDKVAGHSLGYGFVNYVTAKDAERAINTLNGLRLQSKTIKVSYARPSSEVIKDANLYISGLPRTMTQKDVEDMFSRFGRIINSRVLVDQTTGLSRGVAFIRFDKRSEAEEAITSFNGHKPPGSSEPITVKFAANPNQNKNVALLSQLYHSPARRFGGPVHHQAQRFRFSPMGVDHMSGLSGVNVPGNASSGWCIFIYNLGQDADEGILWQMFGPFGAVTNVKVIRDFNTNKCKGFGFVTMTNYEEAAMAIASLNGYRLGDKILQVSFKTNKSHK
T1 sequence (Q15717 whole entry, the tested form may be a part): as above
T2 sequence (Q15717 2-189): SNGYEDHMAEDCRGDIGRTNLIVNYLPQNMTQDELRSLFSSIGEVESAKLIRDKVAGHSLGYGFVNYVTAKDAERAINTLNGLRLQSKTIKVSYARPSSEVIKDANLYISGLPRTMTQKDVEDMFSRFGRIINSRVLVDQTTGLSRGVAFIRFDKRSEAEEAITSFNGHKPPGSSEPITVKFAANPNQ

Row | Substance | Kd [2] | Kd (HuR12) | also measured
1 | wild-type full length HuR: unmodified wild-type full length HuR protein |  |  | solubility in aqueous solvent (in words) ([1]; without micelle-forming detergents or glycerol, protein >0.5 μM): practically insoluble
2 | UAUUAAUUUAAUUAUUUAAUAAUAUUUAUAUUAAA (chemistry not given here) [Cox-2 (2), synthetic RNA fragment of the Cox-2 ARE, 5'-TMR labeled] | 13.6 nM | 229 nM | 
3 | 4c (AUUUAUUUAUUUA; chemistry not given here) |  |  | Kd (in nM) (full length HuR; binding to full length HuR): not bound
4 | AUUUAUUUAUUUAUUUA (chemistry not given here) [(AUUU)4A] | 2.09 nM | 126 nM | 
5 | 4d (AUUUAUUUAUUUA; chemistry not given here) |  |  | Kd (in nM) (full length HuR; binding to full length HuR): not bound
6 | AUUAUUUAUUAUUUAUUUAUUAUUUAUUUAUUUA (chemistry not given here) [TNF-α, synthetic RNA fragment of the TNF-α ARE, 5'-terminally labeled with 5'-carboxy-TMR] | 0.35 nM | 21.4 nM | 
7 | UAUUUAUUUAUUUAUUUGUUUGUUUGUUUUAUU (chemistry not given here) [IL-1β, synthetic RNA fragment of the IL-1β ARE, 5'-TMR labeled] | 0.12 nM | 18.4 nM | 
8 | 4a (AUUUAUUUAUUUA; chemistry not given here) |  |  | Kd (full length HuR; binding to full length HuR): 0.0014 µM; Kd (in nM) (full length HuR; binding to full length HuR): not bound
9 | UAUUUAUUAUUUAUGUAUUUAUUUAA (chemistry not given here) [IL-8, synthetic RNA fragment of the IL-8 ARE, 5'-TMR labeled] | 1.09 nM | 42.9 nM | 
10 | UAUUUAUUUAAAUAUUUAAAUUUUAUAUUUAUU (chemistry not given here) [IL-2, synthetic RNA fragment of the IL-2 ARE, 5'-TMR labeled] | 9.5 nM | 498 nM | 
11 | HuR12: HuR variant encompassing the first two RRMs, aa1-189 or aa2-189 of SEQ ID NO:1 |  |  | concentration at which no aggregation and precipitation is seen [1]: > 100 µM
12 | polyU [reference compound] |  |  | binding / recognition by HuR (in words) (full length HuR; full length HuR): bound by HuR with high affinity
13 | AUUUUAAUUUAUGAGUUUUUGAUAGCUUUAUUUUUUAAGUAUUUAUAUAUUUAUAA (chemistry not given here) [IL-4, synthetic RNA fragment of the IL-4 ARE, 5'-TMR labeled] | 3.21 nM | 154 nM | 
14 | AUUAUUAUUAUUAUUA (chemistry not given here) [(AUU)5A] |  | 1590 nM | Kd sfl-HuR in nM +/- St. dev. [2]: n.b.
15 | UAGAGUUCAUCGCAAUUGCAC (chemistry not given here) [irrelevant seq., reference compound] |  |  | Kd sfl-HuR in nM +/- St. dev. [2]: n.b.; Kd HuR12 in nM +/- St. dev. (HuR12): n.b.
16 | sfl-HuR: full-length human HuR (SEQ ID NO:1 or 2) whose C-terminal amino acid is esterified by Na-2-MESNA as a thioester |  |  | concentration at which no aggregation and precipitation is seen [1]: > 0.5 µM
17 | AUUUAUUUAUUUAUUUAUUUA (chemistry not given here) [(AUUU)5A] | 0.4 nM | 23.5 nM | 
